Assay results as given in patent publication US4220790A, “1-N,N-Dimethylcarbamyl-3-tert.butyl-5-methylthio-1,2,4-triazole” (priority 1977, dated 1980).

Experiments:
Southern corn rootworm [1] = assay: Corn rootworm control under corn growing conditions, aging in soil, root damage rating; format: in vivo, Diabrotica undecimpunctata howardi; parameters: AVERAGE ROOT DAMAGE RATINGS, Test No. 1 / AVERAGE ROOT DAMAGE RATINGS, Test No. 2 / AVERAGE ROOT DAMAGE RATINGS, Test No. 3 / AVERAGE ROOT DAMAGE RATINGS, Test No. 4 / AVERAGE ROOT DAMAGE RATINGS, Test No. 5: scale not given here; settings: for AVERAGE ROOT DAMAGE RATINGS, Test No. 3 / AVERAGE ROOT DAMAGE RATINGS, Test No. 4 / AVERAGE ROOT DAMAGE RATINGS, Test No. 5: 1.0 lb/A; for AVERAGE ROOT DAMAGE RATINGS, Test No. 3 / AVERAGE ROOT DAMAGE RATINGS, Test No. 1: aged 11 days; for AVERAGE ROOT DAMAGE RATINGS, Test No. 4: aged 26 days; for AVERAGE ROOT DAMAGE RATINGS, Test No. 5 / AVERAGE ROOT DAMAGE RATINGS, Test No. 2: aged 41 days; for AVERAGE ROOT DAMAGE RATINGS, Test No. 1 / AVERAGE ROOT DAMAGE RATINGS, Test No. 2: 10.0 lb/A
From the text: During this period of time in the soil the insecticide concentration diminishes as a result of leaching and the action of oxygen and soil microbes, so that it is difficult to maintain sufficient concentration to kill the rootworms. […] Less than a half dozen compounds enjoy substantial commercial success for this purpose. […] Carbofuran was therefore selected as a standard for comparison of his compound and closely related compounds for corn rootworm control under corn growing conditions. The organism used in these tests were Diabrotica undecimpunctata howardi, the Southern corn rootworm. The following method was employed in the tests:
Two parallel rows of corn (Pioneer 385 g×526 g untreated) were planted 2" apart down the center of Mirro No. C8509 aluminum bread pans, 5 kernels corn per row in greenhouse potting soil. The dimensions of the bread pans are 95/8"×51/2"×23/4" and lack holes in the bottoms of the pans. Each kernel of corn at time of germination was infested with 3-day-old SCR eggs, approximately 50 eggs per kernel. Test pans were treated by drenching 200 mls of test solution (Triton X-100, water and the test chemical dissolved in 5 mls acetone) on the surface of the soil in the bread pan. The schedule for treating, planting corn, and infesting with corn rootworm eggs were varied to test aging characteristics of the compounds in soil. The test pans were watered daily and held at 80° F. and 50% R.H. until rated. Root damage rating was done by the following rating sequence:
Rating % Root Damage Rating
The chemical compound which were tested were those of the structural formula [drawing 5] in which R represents tert.butyl, methyl, ethyl, propyl, butyl and isobutyl.
The comparison standard was carbofuran (2,3-dihydro-2,2-dimethyl-7-benzofuranyl methylcarbamate).
The tests were conducted during the months of July and August according to the time schedule as set forth below: […]

two-spotted mites = assay: Spray test on two-spotted mites (TSM); parameters: species or system two-spotted mite; settings: in vivo
Procedure: Method for Mites, Aphids, Bean Beetles and Army Worms
Three 5 oz. paper cups containing Henderson dwarf lima bean plants and one 5 oz. paper cup containing Orange Gem nasturtiums, all growing in vermiculite, are placed on a turntable and sprayed to thorough wetness with 25 ml of a solution of the candidate chemical at the appropriate concentration. Nasturtiums were already infested with 50-100 bean aphids (BA). A bean plant in one paper cup was already infested with 50-100 two-spotted mites (TSM). Leaves from the two remaining bean plants are removed following spraying and placed in disposable petri dishes with 5 southern armyworm (SA) larvae in one petri dish, and 5 Mexican bean beetle (MBB) larvae in the other petri dish. The rating is done approximately 48 hours after spraying as follows:
(§1) Results obtained with the novel insecticide of this invention at various concentrations of active chemical are tabulated below. The ratings given are for averages of three or more replicates. The oral lethal dose for 50 percent kill of laboratory rats is also recorded in the table. In conducting the toxicity tests on rats, 0.01 g of active chemical per ml in corn oil is employed as an additive to the diet of the animals.

Southern Corn Rootworm [2] = assay: Southern corn rootworm (SCR) test in cups with corn; format: in vivo; settings: for Corn Rootworm (SCR) rating: nine days after treatment; for toxicity to corn rootworm (in words): comparative tests, nineteen compounds
Procedure: Method for Southern Corn Rootworm (SCR)
Three 5 oz. paper cups planted each with one kernel of DeKalb XL-361 corn are treated two days after planting with 10 ml of a 125 ppm solution of the candidate compound. Compounds with high efficacy are tested at lower concentrations. The experiment is a 4×5 factorial in a randomized complete block design with three replications. The tests are evaluated nine days after treatment. The roots are inspected under a dissecting microscope and rated as follows:
SCR Rating % Root Feeding Damage
So as to obtain more meaningful results, all tests are performed at the same time of day, whenever possible, usually in the forenoon. Temperature,illumination and humidity are the same in all tests. Atmospheric pressure is not controlled.
as §1

[3] = test system: insects of the orders Coleoptera and Orthoptera; assay: Effectiveness against insects of the orders Coleoptera and Orthoptera; format: in vivo

CCc1nc(SC)n(C(=O)N(C)C)n1 [R' = ethyl]
AVERAGE ROOT DAMAGE RATINGS, Test No. 3 (Southern corn rootworm [1]): 0 (100)
AVERAGE ROOT DAMAGE RATINGS, Test No. 4 (Southern corn rootworm [1]): 1.1
AVERAGE ROOT DAMAGE RATINGS, Test No. 5 (Southern corn rootworm [1]): 1.0
AVERAGE ROOT DAMAGE RATINGS, Test No. 1 (Southern corn rootworm [1]): 4.3
AVERAGE ROOT DAMAGE RATINGS, Test No. 2 (Southern corn rootworm [1]): 3.0

CNC(=O)Oc1cccc2c1OC(C)(C)C2 [Carbofuran, 2,3-dihydro-2,2-dimethyl-7-benzofuranyl methylcarbamate]
AVERAGE ROOT DAMAGE RATINGS, Test No. 3 (Southern corn rootworm [1]): 4.3
AVERAGE ROOT DAMAGE RATINGS, Test No. 4 (Southern corn rootworm [1]): 3.8
AVERAGE ROOT DAMAGE RATINGS, Test No. 5 (Southern corn rootworm [1]): 4.7
AVERAGE ROOT DAMAGE RATINGS, Test No. 1 (Southern corn rootworm [1]): 4.8
AVERAGE ROOT DAMAGE RATINGS, Test No. 2 (Southern corn rootworm [1]): 4.1

CSc1nc(C(C)(C)C)nn1C(=O)N(C)C [1-N,N-Dimethylcarbamyl-3-tert.butyl-5-methylthio-1,2,4-triazole]
miticidal activity (in words) (two-spotted mites): absence of miticidal activity
Corn Rootworm (SCR) rating (Southern Corn Rootworm [2]; 3 ppm, listed as U.S.Ser.No. 842,760): 3.0
Corn Rootworm (SCR) rating (Southern Corn Rootworm [2]; 6 ppm): 3.3
toxicity to corn rootworm (in words) (Southern Corn Rootworm [2]): displayed toxicity to corn rootworm
insecticidal effectiveness (in words) [3]: effective against insects of the orders Coleoptera and Orthoptera
AVERAGE ROOT DAMAGE RATINGS, Test No. 3 (Southern corn rootworm [1]): 4.5
AVERAGE ROOT DAMAGE RATINGS, Test No. 4 (Southern corn rootworm [1]): 4.1
AVERAGE ROOT DAMAGE RATINGS, Test No. 5 (Southern corn rootworm [1]): 4.6
AVERAGE ROOT DAMAGE RATINGS, Test No. 1 (Southern corn rootworm [1]): 5.0
AVERAGE ROOT DAMAGE RATINGS, Test No. 2 (Southern corn rootworm [1]): 4.3
duration of efficacy against corn rootworm (in words) (Southern corn rootworm [1]; compared with carbofuran): efficacy of long duration, comparable to the commercial insecticide

CCCc1nc(SC)n(C(=O)N(C)C)n1 [R' = propyl]
AVERAGE ROOT DAMAGE RATINGS, Test No. 3 (Southern corn rootworm [1]): 0.3
AVERAGE ROOT DAMAGE RATINGS, Test No. 4 (Southern corn rootworm [1]): 1.8
AVERAGE ROOT DAMAGE RATINGS, Test No. 5 (Southern corn rootworm [1]): 2.3
AVERAGE ROOT DAMAGE RATINGS, Test No. 1 (Southern corn rootworm [1]): 4.4
AVERAGE ROOT DAMAGE RATINGS, Test No. 2 (Southern corn rootworm [1]): 3.1

CSc1nc(C)nn1C(=O)N(C)C [R' = methyl]
AVERAGE ROOT DAMAGE RATINGS, Test No. 3 (Southern corn rootworm [1]): 0 (100)
AVERAGE ROOT DAMAGE RATINGS, Test No. 4 (Southern corn rootworm [1]): 0.1
AVERAGE ROOT DAMAGE RATINGS, Test No. 5 (Southern corn rootworm [1]): 0.5
AVERAGE ROOT DAMAGE RATINGS, Test No. 1 (Southern corn rootworm [1]): 2.7
AVERAGE ROOT DAMAGE RATINGS, Test No. 2 (Southern corn rootworm [1]): 0 (100)

CCCCc1nc(SC)n(C(=O)N(C)C)n1 [R' = butyl]
AVERAGE ROOT DAMAGE RATINGS, Test No. 3 (Southern corn rootworm [1]): 0 (100)
AVERAGE ROOT DAMAGE RATINGS, Test No. 4 (Southern corn rootworm [1]): 0.4
AVERAGE ROOT DAMAGE RATINGS, Test No. 5 (Southern corn rootworm [1]): 0.5
AVERAGE ROOT DAMAGE RATINGS, Test No. 1 (Southern corn rootworm [1]): 4.4
AVERAGE ROOT DAMAGE RATINGS, Test No. 2 (Southern corn rootworm [1]): 3.6

CSc1nc(CC(C)C)nn1C(=O)N(C)C [R' = isobutyl]
AVERAGE ROOT DAMAGE RATINGS, Test No. 3 (Southern corn rootworm [1]): 0.6
AVERAGE ROOT DAMAGE RATINGS, Test No. 4 (Southern corn rootworm [1]): 0.3
AVERAGE ROOT DAMAGE RATINGS, Test No. 5 (Southern corn rootworm [1]): 2.3
AVERAGE ROOT DAMAGE RATINGS, Test No. 1 (Southern corn rootworm [1]): 4.8
AVERAGE ROOT DAMAGE RATINGS, Test No. 2 (Southern corn rootworm [1]): 3.6

CCc1nc(SC)n(C(=O)N(C)C)n1 [Example XVI]
Corn Rootworm (SCR) rating (Southern Corn Rootworm [2]; 3 ppm): 0.5
Corn Rootworm (SCR) rating (Southern Corn Rootworm [2]; 12 ppm): 2.5
Corn Rootworm (SCR) rating (Southern Corn Rootworm [2]; 25 ppm): 3.5
Corn Rootworm (SCR) rating (Southern Corn Rootworm [2]; 100 ppm): 3.7
total kill of corn rootworm (in words) (Southern Corn Rootworm [2]; any concentration): failed to give a total kill at any concentration
toxicity to corn rootworm (in words) (Southern Corn Rootworm [2]): displayed toxicity to corn rootworm
